Values quoted from earlier work in patent US20070134339A1, “ZONISAMIDE AND NSAID NANOPARTICULATE FORMULATIONS” (Elan Pharma International, Limited, priority 2005, published 2007).
In brackets after ≈: the same amount, converted by molar mass.

How the values were obtained:
[1] = not given; remark: listed apart in the source
[2] = not given; remark: listed apart in the source

NS(=O)(=O)Cc1noc2ccccc12 [Zonisamide, 1,2-benzisoxazole-3-methanesulfonamide]
peak plasma concentrations (200-400 mg oral dose, normal volunteers): 2 to 5 µg/mL | time at which peak plasma concentrations occur (200-400 mg oral dose, normal volunteers, without food): 2 to 6 h | effect of food on bioavailability (oral, in the presence of food): no effect | time to maximum concentration (oral, in the presence of food): 4 to 6 h | solubility in 0.1 N HCl ([1]; 0.1 N HCl): 500 µg/mL (≈ 2.36 mM) | solubility in water ([1]; water): 800 µg/mL (≈ 3.77 mM) | pKa [2]: 10.2
